Consider five compounds from patent publication US11571011B2, “Compositions of steviol multiglycosylated derivatives and stevia components” (SWEET GREEN FIELDS USA LLC, priority 2015, dated 2023).

“And” between values parts separate entries of the source, which are not always exact repeats. Equal values may be shown once.

Data set [1] in a line: Solubility of spray-dried GSG-RA20 / steviol glycoside 1:1 compositions (Example 56). Format: physicochemical. On the procedure:
GSG-RA20 was mixed with RA, RB, RD or stevioside as the ratio of 1:1 by weight so as to obtain a mixture, a certain amount of solvent, such as water, ethanol/water mixture, was added into the obtained mixture, heated to a certain temperature until the mixture was completely dissolved, and the temperature was kept for an hour. The solution was treated by spray drying to obtain the composition comprising GSG and SG.

The conditions of data set [2]: background; cited from earlier work.
Data set [3] can be described thus: Calculated versus measured sweetness of GSG / steviol glycoside compositions from sweetness curves (synergistic effect). To be noted: for Calculated SE of RA97: citric acid pH 3.8. Set-up: species or system human. On the procedure: The sweetness of GSG-RA50 and RA97 compositions at varying concentrations was measured according to the sweetness curve (FIG. 9), and the combined sweetness of each composition of GSG-RA50 and RA97 was calculated and compared with the measured value in Table 19.
Calculated SE (ppm sucrose) of GSG-RA50 per ppm=calculated SE of GSG-RA50/concentration of GSG-RA50. Measured sweetness (ppm sucrose) of GSG-RA50 per ppm=(Measured SE−Calculated SE of RA97)/concentration of GSG-RA50.
The sweetness of GSG-RA95 and rebaudioside A, 97% purity (RA) RA97 compositions at varying concentrations was measured according to the sweetness curve (FIG. 13), and the combined sweetness of each composition of GSG-RA95 and RA97 was calculated and compared with the measured value in Table 23.
Calculated sweetness (ppm sugar) of GSG-RA50 per ppm=calculated SE of GSG-RA50/concentration of GSG-RA50. Measured sweetness (ppm sugar) of GSG-RA50 per ppm=(Measured SE-calculated SE of RA97)/concentration of GSG-RA50.
Calculated sweetness (ppm sugar) of GSG-RA20 plus RA97 per ppm=calculated SE of GSG-RA20 plus RA97/concentration of GSG-RA20 plus RA97
Measured sweetness (ppm sugar) of GSG-RA20 plus RA97 per ppm=(Measured SE of GSG-RA20 plus RA97−sugar concentration)/concentration of GSG-RA20 plus RA97

The nature of data set [4]: Evaluation of taste profile: sugar like, bitterness, aftertaste, lingering scored 0-5 by sensory panel. It is filed as in vivo, human. On the procedure:
1. The components where mixed and then dissolved in aqueous citric acid (pH 3.8) with ultrasound at room temperature and left to sit for 30 min.
For evaluation of taste profile, the samples were tested and were scored 0-5 according to the increasing sugar like, bitterness, aftertaste and lingering taste profiles. The results were recorded as the mean value of the results provided by the panel.

[5] abbreviates: 0.01 g of each component in 10 ml water.
[6] abbreviates: RA97 400 ppm (control), citric acid pH 3.8.
The mark [7] stands for this setting: total solid content 350 ppm, panel score.

For the compound `C=C1C[C@@]23CC[C@H]4[C@@](C)(CCC[C@@]4(C)C(=O)O[C@@H]4O[C@H](CO)[C@@H](O)[C@H](O)[C@H]4O[C@@H]4O[C@H](CO)[C@@H](O)[C@H](O)[C@H]4O)[C@@H]2CC[C@]1(O[C@@H]1O[C@H](CO)[C@@H](O)[C@H](O[C@@H]2O[C@H](CO)[C@@H](O)[C@H](O)[C@H]2O)[C@H]1O[C@@H]1O[C@H](CO)[C@@H](O)[C@H](O)[C@H]1O)C3` [Rebaudioside D], in data set [1] (setting [5]), the Stable time entry is on record as “insoluble”.
In the case of `C=C1C[C@@]23CC[C@H]4[C@@](C)(CCC[C@@]4(C)C(=O)O[C@@H]4O[C@H](CO)[C@@H](O)[C@H](O)[C@H]4O)[C@@H]2CC[C@]1(O[C@@H]1O[C@H](CO)[C@@H](O)[C@H](O)[C@H]1O[C@@H]1O[C@H](CO)[C@@H](O)[C@H](O)[C@H]1O)C3` [Stevioside], the “times sweeter than sugar” value in data set [2] was “approximately 300 times”.
On to Rebaudioside B, for which the Stable time result in data set [1] (setting [5]) is recorded as “insoluble”.
For `C=C1C[C@@]23CC[C@H]4[C@@](C)(CCC[C@@]4(C)C(=O)O[C@@H]4O[C@H](CO)[C@@H](O)[C@H](O)[C@H]4O)[C@@H]2CC[C@]1(O[C@@H]1O[C@H](CO)[C@@H](O)[C@H](O[C@@H]2O[C@H](CO)[C@@H](O)[C@H](O)[C@H]2O)[C@H]1O[C@@H]1O[C@H](CO)[C@@H](O)[C@H](O)[C@H]1O)C3` [RA97, Rebaudioside A], the “Calc. SE of RA97” value was 1.5% in data set [3] (RA97 50 ppm, read from sweetness curve); 1.5% in data set [3] (RA97 50 ppm, with GSG-RA90, 350 ppm total solids); 3% and 3.2% in data set [3] (RA97 100 ppm, read from sweetness curve); 3.2% in data set [3] (RA97 100 ppm, with GSG-RA90, 350 ppm total solids); 3% in data set [3] (RA97 100 ppm, with GSG-RA95, 200 ppm total solids); 4.2% and 4% in data set [3] (RA97 150 ppm, read from sweetness curve). The “Calc. SE of RA97” value in data set [3] (RA97 150 ppm, with GSG-RA90, 350 ppm total solids) is recorded as 4%; in data set [3] (RA97 150 ppm, with GSG-RA95, 200 ppm total solids) it was 4.2%; in data set [3] (RA97 200 ppm, read from sweetness curve), 5%; in data set [3] (RA97 200 ppm, with GSG-RA90, 350 ppm total solids), 5%; in data set [3] (RA97 250 ppm, read from sweetness curve), 6%; in data set [3] (RA97 250 ppm, with GSG-RA90, 350 ppm total solids) it was 6%. Also, the “Calc. SE of RA97” value in data set [3] (RA97 300 ppm, read from sweetness curve) was 6.9% and 7%; in data set [3] (RA97 300 ppm, with GSG-RA90, 350 ppm total solids), 6.9%; in data set [3] (RA97 300 ppm, with GSG-RA95, 500 ppm total solids) it was 7%; in data set [3] (RA97 400 ppm, read from sweetness curve), 8.25%; in data set [3] (RA97 400 ppm, with GSG-RA95, 500 ppm total solids), 8.25%. In addition, the “Calculated SE of RA97” value in data set [3] (RA97 100 ppm) is 3%; in data set [3] (RA97 150 ppm) it was 4.20%; in data set [3] (RA97 200 ppm) it was 5%; in data set [3] (RA97 250 ppm), 6%; in data set [3] (RA97 300 ppm) it was 6.90%. In addition, in data set [3] (RA97 alone, 350 ppm, no GSG), the “Measured SE of the composition” value was 8%. Further, the “Calculated SE of the single component (steviol glycoside composition or GSG) alone” value in data set [3] (component at 150 ppm) is on record as 4.00%; in data set [3] (component at 200 ppm) it was 5.00%; in data set [3] (component at 250 ppm), 6.00%. For the same compound, the Aftertaste in data set [4] (setting [6]) and in data set [4] (setting [7]) was 3 throughout. Moreover, the Bitterness in data set [4] (setting [6]) and in data set [4] (setting [7]) was 2 each time. Also, the Lingering in data set [4] (setting [6]) and in data set [4] (setting [7]) was 4 throughout. Moreover, the Sugar like in data set [4] (setting [6]) and in data set [4] (setting [7]) was 3 in each case.
In turn, `C=C1C[C@@]23CC[C@H]4[C@@](C)(CCC[C@@]4(C)C(=O)O[C@@H]4O[C@H](CO)[C@@H](O)[C@H](O)[C@H]4O)[C@@H]2CC[C@]1(O[C@@H]1O[C@H](CO)[C@@H](O)[C@H](O[C@@H]2O[C@H](CO)[C@@H](O)[C@H](O)[C@H]2O)[C@H]1O[C@@H]1O[C@H](CO)[C@@H](O)[C@H](O)[C@H]1O)C3` [Rebaudioside A] had a Stable time in data set [1] (1 g in 10 ml water) of 2 h.
